In paper PMC11173382, “In Vitro Investigations into the Potential Drug Interactions of Pseudoginsenoside DQ Mediated by Cytochrome P450 and Human Drug Transporters” (Molecules, 2024):
pIC50: −log10 of the molar value.

Biological target: T1, hOATP1B3 (Homo sapiens, UniProt Q9NPD5)
T1 sequence (Q9NPD5 1-702): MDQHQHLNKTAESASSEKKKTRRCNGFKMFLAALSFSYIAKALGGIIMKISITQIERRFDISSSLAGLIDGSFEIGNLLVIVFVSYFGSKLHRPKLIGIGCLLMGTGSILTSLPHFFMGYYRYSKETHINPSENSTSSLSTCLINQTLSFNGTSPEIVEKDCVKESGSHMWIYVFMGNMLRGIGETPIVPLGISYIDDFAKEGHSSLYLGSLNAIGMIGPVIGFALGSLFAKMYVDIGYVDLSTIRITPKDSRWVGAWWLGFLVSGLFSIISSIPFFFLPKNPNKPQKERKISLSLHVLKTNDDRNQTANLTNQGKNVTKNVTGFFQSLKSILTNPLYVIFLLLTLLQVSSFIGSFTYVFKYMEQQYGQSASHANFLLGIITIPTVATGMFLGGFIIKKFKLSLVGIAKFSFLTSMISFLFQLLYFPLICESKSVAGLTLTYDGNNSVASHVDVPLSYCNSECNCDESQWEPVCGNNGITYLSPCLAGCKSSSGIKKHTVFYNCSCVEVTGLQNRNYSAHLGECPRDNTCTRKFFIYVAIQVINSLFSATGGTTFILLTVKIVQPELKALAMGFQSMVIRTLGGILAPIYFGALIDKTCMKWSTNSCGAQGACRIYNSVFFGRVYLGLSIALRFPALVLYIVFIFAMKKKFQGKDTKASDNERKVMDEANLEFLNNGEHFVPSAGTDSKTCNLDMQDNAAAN
Experiment: Substrates uptake assay, HEK293A-OATP1B3 cells (3H-EG)
Type: in vitro ADME
Description: Drug transporters mediate the cellular uptake and efflux of their substrates. Therefore, cell lines overexpressing a drug transporter can be utilized to investigate inhibitors of the transporter by assessing changes in substrate uptake. For each drug transporter, we selected a well-characterized inhibitor as the positive control. Radiolabeled substrates were used to indicate the decrease in transport efficiency when the drug transporters were inhibited by PDQ or the control inhibitors.
The concentrations of the control drugs and the substrates were stated in the assay details. Working solutions of the control inhibitors, the radiolabeled substrates, and each dose of PDQ were prepared at 200 times (200×) more concentrated solutions with DMSO for further dilution.
Transporter-overexpressed cell lines. Human organic anion transporter-overexpressed cell lines MDCKII-OAT1 and S2-OAT3, human organic anion transport polypeptide-overexpressed cell lines HEK293A-OATP1B1 and HEK293A-OATP1B3, human organic cation transporter 2-overexpressed cell line S2-OCT2, and human multi-drug resistance protein MDR1 (or P-gp)-overexpressed cell line MDCKII-MDR1 were gifts from Japan Fuji Biomedical Co., Ltd. (Fuji, Shizuoka Prefecture, Japan). Breast cancer resistance protein-overexpressed vesicles (sf9-BCRP vesicle) were purchased from GenoMembrane Co., Ltd. (Yokohama, Kanagawa, Japan).
Substrates uptake assay. In this assay, we studied the inhibition of PDQ against transporters OAT1, OAT3, OCT2, OATP1B1 and OATP1B3 with MDCKII-OAT1, S2-OAT3, S2-OCT2, HEK293A-OATP1B1and HEK293A-OATP1B3 cells, respectively. The radiolabeled substrates for OAT1, OAT3, OATP1B1, OATP1B3 and OCT2 were […], respectively (Table 5). Probenecid ([…]) was the positive control inhibitor of OAT1 and OAT3, while rifampicin ([…]) served as the control drug of OATP1B1 and OATP1B3. For OCT2, we used […] cimetidine to compare with the inhibitory effect of PDQ. Two times (2×) more concentrated working solutions of the drugs and the substrate were prepared with Dulbecco’s phosphate-buffered saline (DPBS, Gibco, Grand Island, NY, USA.). Then, an equal volume of 2× drug solution and 2× radiolabeled substrate solution were mixed as the working mix. All reagents were pre-warmed to 37 °C.
The cells were digested with 0.05% trypsin/EDTA. The density of the single-cell suspension was adjusted to 2.0 × 10^5 cells/mL for S2 cells and to 1.5 × 10^5 cells/mL for MDCK II and HEK293A cells. The cell suspension was then added to the reservoirs of the 24-well plate for culture until full confluency. The medium in the wells was removed, and the wells were washed with DPBS. Then, the plate was incubated for 10 min with pre-warmed DPBS in the wells. After removing DPBS, […] of working mix was added to each well to initiate the substrate uptake process. The reaction time was 5 min for S2-OCT2 cells, while the other four types of cells were incubated with the reaction mix for 2 min. Cold DPBS was used to terminate the substrate transportation. To each well, […] NaOH ([…]) was added to lyse the cells. Then, […] cell lysate was transferred to the counting vials, and 3 mL scintillation cocktail (Aquasol-2, PerkinElmer, Waltham, MA, USA) was added. […] Each sample was replicated three times (N = 3).
In = [100 × (U − U0)/(Uc − U0)]%(3)
The results were expressed as mean ± standard deviation (SD) and analyzed with GraphPad Prism 8.0 software (CA, USA). The IC50 of PDQ was curve-fitted with the FORECAST function. Statistical significance was calculated using a two-tailed test, and a p value < 0.05 was considered as significant.

SMILES: CC(C)(O)[C@@H]1CC[C@@](C)([C@H]2CC[C@]3(C)[C@@H]2[C@H](O)C[C@@H]2[C@@]4(C)CC[C@H](O)C(C)(C)[C@@H]4CC[C@]23C)O1 [PDQ, (20S,24S)-dammar-20,24-epoxy-3β, 12β, 25-triol]
- pIC50 (HEK293A-OATP1B3, 3H-EG 1 µM, 2 min): < 4.52
- DPM (3H-EG uptake by OATP1B3) (inhibitor 0.1 μM): 3332.7±245.2 DPM
- DPM (3H-EG uptake by OATP1B3) (inhibitor 0.3 μM): 3200.3±323.1 DPM
- DPM (3H-EG uptake by OATP1B3) (inhibitor 1 μM): 3093.3±182.0 DPM
- DPM (3H-EG uptake by OATP1B3) (inhibitor 3 μM): 2980.7±186.5 DPM
- DPM (3H-EG uptake by OATP1B3) (inhibitor 10 μM): 2985.0±250.2 DPM
- DPM (3H-EG uptake by OATP1B3) (inhibitor 30 μM): 2649.0±200.2 DPM
